Tests used:
neonatal BMDCs = assay: BMDC in vitro stimulation with PRR agonists/adjuvants, 20-24 h: cytokines by ELISA, maturation markers by flow cytometry; assay type: cell-based, C57BL/6 mice
Protocol: Briefly, mice were sacrificed and legs removed; bones were surgically cleaned from surrounding tissue, extremities of tibiae and femurs were trimmed with sterile scissors and bone marrow flushed through a 70 μm nylon mesh strainer (Corning Life Sciences). Cell number and viability was determined by trypan blue exclusion. […] Plates were incubated in humidified atmosphere at 37° C., 5% CO2 for 6 days, with one supplement of 10 ml of complete culture medium and rmGM-CSF on day 3. On Day 6, non-adherent and loosely adherent cells were harvested by washing the plate gently with culture medium. Adherent cells were discarded. For flow cytometry analysis, BMDCs were stained (20 minutes at 4° C.) in PBS+FBS 2%+EDTA 2 mM, fixed with formaldehyde 4% (10 minutes at RT) and acquired on a BD LSRFortessa flow cytometer (BD Biosciences) or a Sony spectral analyzer SP6800 (Sony Biotechnology) and data were analyzed using FlowJo v.10 software (Tree Star). For a complete list of antibodies and fluorochromes used in the study see Table 2.
Rough (Salmonella Minnesota, R595) and smooth (Escherichia coli, O55:B5) lipopolysaccharide (LPS) were purchased from List Biological Laboratories. […] All PRR agonists employed in the studies were chosen based on and verified endotoxin free as indicated by the manufacturers. For stimulation experiments, immature BMDCs generated from newborn and adult mice were plated in round bottom 96-wells non-tissue culture-treated plates at the density of 10^5 cells/well in 200 μl of fresh complete culture medium with rmGM-CSF as described above, with the appropriate stimuli at the concentrations indicated in Table 3. Cells were incubated at 37° C. for 20-24 hours, then supernatant harvested and TNF, IL-6, IL-1β and IL-12p70 concentrations were measured by ELISA (R&D Systems). IFNβ was measured with a bioluminescent ELISA kit (LumiKine, Invivogen). Alternatively, BMDCs were stained and analyzed by flow cytometry as indicated above.

adult BMDCs = assay: BMDC in vitro stimulation with PRR agonists/adjuvants, 20-24 h: cytokines by ELISA; assay type: cell-based, C57BL/6 mice; conditions: increasing concentrations
Protocol: BMDCs were generated from newborn (5-7 days old) and adult (6-12 weeks old) C57BL/6 mice with an adaptation of previously described methods (Dowling et al., 2008, Lutz et al., 1999). Briefly, mice were sacrificed and legs removed; bones were surgically cleaned from surrounding tissue, extremities of tibiae and femurs were trimmed with sterile scissors and bone marrow flushed through a 70 μm nylon mesh strainer (Corning Life Sciences). Cell number and viability was determined by trypan blue exclusion. […] For flow cytometry analysis, BMDCs were stained (20 minutes at 4° C.) in PBS+FBS 2%+EDTA 2 mM, fixed with formaldehyde 4% (10 minutes at RT) and acquired on a BD LSRFortessa flow cytometer (BD Biosciences) or a Sony spectral analyzer SP6800 (Sony Biotechnology) and data were analyzed using FlowJo v.10 software (Tree Star). […]
Rough (Salmonella Minnesota, R595) and smooth (Escherichia coli, O55:B5) lipopolysaccharide (LPS) were purchased from List Biological Laboratories. […] Cells were incubated at 37° C. for 20-24 hours, then supernatant harvested and TNF, IL-6, IL-1β and IL-12p70 concentrations were measured by ELISA (R&D Systems). IFNβ was measured with a bioluminescent ELISA kit (LumiKine, Invivogen). Alternatively, BMDCs were stained and analyzed by flow cytometry as indicated above. […]

adult C57BL/6 mice = assay type: in vivo; conditions: prime-boost i.m., rHA + adjuvant, Day 35 post-prime
newborn C57BL/6 mice = assay type: in vivo; conditions: prime-boost DOL 7 and 14, Day 35 post-prime (DOL 42)
newborn mice = assay type: in vivo; conditions: single dose immunization, serum at DOL 35
[1] = Quantification of 2′3′-cGAMP adsorption onto alum by RP-HPLC; conditions: for % Adsorbed to Alum: 1:10 cGAMP:alum mass ratio, saline
Protocol: After vortexing for 10 seconds the sample was placed in a 37° C. incubator. Every 15 minutes the sample was vortexed for an additional 5 seconds and placed back into the incubator. […] Supernatant was immediately removed and placed into an autosampler vial undiluted for analysis by reverse-phase high performance liquid chromatography (RP-HPLC) to determine adsorption as a function of time. RP-HPLC samples were run on a Waters 2695 HPLC equipped with a 2996 photodiode array detector at a wavelength of 254 nm. A gradient was performed using a two mobile phase system of 0.1% trifluoroacetic acid in water and 0.1% trifluoroacetic acid in acetonitrile, on an Agilent Zorbax Eclipse Plus C18, 4.6×150 mm, 5 micron column at 25° C.

Structure (SMILES): CCCCNc1nc(N)c2[nH]c(=O)n(Cc3ccc(C(=O)NCC(=O)O)cc3)c2n1 [CL264, reference compound]
- IL-12p70 production by neonatal BMDCs (neonatal BMDCs; most effective non-toxic concentration, 20-24 h): failed to produce IL-12p′70

Structure (SMILES): Nc1nc2c(ncn2[C@@H]2O[C@@H]3COP(=O)(O)O[C@H]4[C@@H](O)[C@H](n5cnc6c(N)ncnc65)O[C@@H]4COP(=O)(O)O[C@@H]2[C@@H]3O)c(=O)[nH]1 [cGAMP, cyclic guanosine monophosphate (GMP)-adenosine monophosphate (AMP)]
- upregulation of surface maturation markers (CD40, CD80, CD86), neonatal vs adult BMDCs (neonatal BMDCs; 20-24 h stimulation): comparable
- dependence of neonatal BMDC maturation marker expression on type I IFN signaling (neonatal BMDCs; cGAMP 25 μg/ml, blocking anti-TNF and anti-IFNAR antibodies): type I interferon-dependent manner
- upregulation of surface maturation marker expression, cGAMP vs R848 (neonatal BMDCs; neonatal and adult BMDCs, different concentrations): more effective than R848
- IFNβ production (neonatal BMDCs; newborn BMDCs, increasing concentrations): dose-dependent IFNβ production
- IFNβ production (adult BMDCs): dose-dependent IFNβ production
- median anti-rHA IgG1 titers (adult C57BL/6 mice): 0.77×10^6
- median anti-rHA IgG2c titers (adult C57BL/6 mice): 0.82×10^6
- median anti-rHA IgG titers (adult C57BL/6 mice): increased anti-rHA IgG titers
- median anti-rHA IgG1 titers (newborn C57BL/6 mice): 24.51×10^3
- median anti-rHA IgG2c titers (newborn C57BL/6 mice): 0.23×10^3
- median anti-rHA IgG titers (newborn C57BL/6 mice): 20.57×10^3
- median anti-rHA IgG1 titers (newborn mice): did not induce detectable
- median anti-rHA IgG2c titers (newborn mice): did not induce detectable
- median anti-rHA IgG titers (newborn mice): did not induce detectable
- degradation products during incubation with alum ([1]; 37° C., over 24 hours): No significant degradation products
- Peak Area of cGAMP in supernatant (RP-HPLC, 254 nm) ([1]; 15 min, 37° C.): 22.53 mAU
- % Adsorbed to Alum ([1]; 15 min, 37° C.): 63%
- Peak Area of cGAMP in supernatant (RP-HPLC, 254 nm) ([1]; 30 min, 37° C.): 22.93 mAU
- % Adsorbed to Alum ([1]; 30 min, 37° C.): 62.34%
- Peak Area of cGAMP in supernatant (RP-HPLC, 254 nm) ([1]; 1 hour, 37° C.): 22.22 mAU
- % Adsorbed to Alum ([1]; 1 hour, 37° C.): 63.51%
- Peak Area of cGAMP in supernatant (RP-HPLC, 254 nm) ([1]; 2 hours, 37° C.): 20.83 mAU
- % Adsorbed to Alum ([1]; 2 hours, 37° C.): 65.79%
- Peak Area of cGAMP in supernatant (RP-HPLC, 254 nm) ([1]; 4 hours, 37° C.): 21.02 mAU
- % Adsorbed to Alum ([1]; 4 hours, 37° C.): 65.48%
- Peak Area of cGAMP in supernatant (RP-HPLC, 254 nm) ([1]; 24 hours, 37° C.): 15.02 mAU
- % Adsorbed to Alum ([1]; 24 hours, 37° C.): 75.33%
- cGAMP adsorbed onto alum in vitro ([1]; summary statement in discussion, no time given): about 60%

Reference: US11633473B2 (priority 2017, dated 2023)
